Where “and” joins values, the source holds several entries; their conditions need not be identical. Identical values can stand only once.
Tests used:
[1] = Optical density (clarity) of TQL-1055 in HP-β-CD solution; type: physicochemical; settings: for Dissolution of TQL-1055: heat and sonication one hour at 60° C.
Protocol: (§1) Two solutions were prepared: (1) 15% w/v HP-β-CD in 1 ml of PBS, add TQL-1055 (crushed) to achieve 1 mg/ml; and (2) 20% w/v HP-β-CD in 1 ml of PBS; add TQL-1055 (crushed) to achieve 1 mg/ml. Both solutions were solubilized using heat and sonication for one hour at 60° C.
Optical density shown below. Clarity is defined against background solvent optical density ([…]):
Three solutions were prepared: (1) 15% w/v HP-β-CD in 1 ml of PBS, add TQL-1055 (crushed) to achieve 2 mg/ml; (2) 20% w/v HP-β-CD in 1 ml of PBS; add TQL-1055 (crushed) to achieve 2 mg/ml; and (3) 25% w/v HP-β-CD in 1 ml of PBS; add TQL-1055 (crushed) to achieve 2 mg/ml. Solutions were solubilized using heat and sonication for one hour at 60° C. […]

[2] = pH of TQL-1055 HP-β-CD solutions (Example 1); type: physicochemical
Protocol: as §1

[3] = Stability of TQL-1055 in HP-β-CD solution: clarity (optical density); type: physicochemical; settings: 1 mg/ml TQL-1055, 20% w/v HP-β-CD in PBS
Protocol: (§2) Solutions containing 20% w/v HP-β-CD and 1 mg/ml dissolved TQL-1055 were prepared according to the following procedure: (1) crush TQL-1055 and sonicate in PBS; (2) add HP-β-CD solution to create a final concentration of 1 mg/ml TQL-1055, 20% HP-β-CD in PBS buffer (3) sonicate for ˜30-60 minutes at 60C (4) obtain a clear solution having 1 mg/ml TQL-1055; 20% w/v HP-R-CD. Control samples containing 20% HP-β-CD were prepared. Optical density and pH were measured at t=1 day, 1 week, 1 month, and 2 months. HPLC was conducted at t=1 day, 1 week, 1 month, and 2 months.

[4] = Stability of TQL-1055 in HP-β-CD solution: pH; type: physicochemical; settings: 1 mg/ml TQL-1055, 20% w/v HP-β-CD in PBS
Protocol: as §2

[5] = Stability of TQL-1055 in HP-β-CD solution: HPLC; type: physicochemical; design: unit not given here; settings: 1 mg/ml TQL-1055, 20% w/v HP-β-CD in PBS
Protocol: as §2

[6] = Solubility in water at physiological pH; type: physicochemical; settings: free acid form
CD-i mice = settings: mouse, in vivo
[7] = 1 mg/ml TQL-1055 in 15% w/v HP-β-CD in PBS, 48 hours (stored at 5° C.)
[8] = 1 mg/ml TQL-1055 in 15% w/v HP-β-CD in PBS, 48 hours (stored at RT)
[9] = 1 mg/ml TQL-1055 in 20% w/v HP-β-CD in PBS, 48 hours (stored at 5° C.)
[10] = 1 mg/ml TQL-1055 in 20% w/v HP-β-CD in PBS, 48 hours (stored at RT)
[11] = 2 mg/ml in 15% w/v HP-β-CD in PBS (solution 1)

For `CC1O[C@@H](OC2C(O)[C@@H](NC(=O)CCCCCCCCCCC(=O)O)C(CO)O[C@H]2OC(=O)[C@]23CCC(C)(C)CC2C2=CCC4C5(C)CC[C@H](O)C(C)(C=O)C5CCC4(C)C2(C)CC3O)C(O)C(O)[C@H]1O[C@@H]1OC[C@@H](O)C(O)C1O` (stereo partly shown) [TQL-1055], the Optical density ([1]; 1 mg/ml TQL-1055 in 15% w/v HP-β-CD in PBS, 0 hour (after sonication)) was 0.055, the Optical density ([1]; 1 mg/ml TQL-1055 in 15% w/v HP-β-CD in PBS, 24 hours (stored at 5° C.)) was 0.051 and the Optical density ([1]; 1 mg/ml TQL-1055 in 15% w/v HP-β-CD in PBS, 24 hours (stored at RT)) was 0.051. It also gave an Optical density [1, 7] of 0.052, an Optical density [1, 8] of 0.051 and an Optical density ([1]; 1 mg/ml TQL-1055 in 20% w/v HP-β-CD in PBS, 0 hour (after sonication)) of 0.058. It also gave an Optical density ([1]; 1 mg/ml TQL-1055 in 20% w/v HP-β-CD in PBS, 24 hours (stored at 5° C.)) of 0.050, an Optical density ([1]; 1 mg/ml TQL-1055 in 20% w/v HP-β-CD in PBS, 24 hours (stored at RT)) of 0.050 and an Optical density [1, 9] of 0.056. The Optical density [1, 10] was 0.051, the “Dissolution of TQL-1055” value ([1]; 1 mg/ml in 15% and in 20% w/v HP-β-CD in PBS) was “dissolved completely” and the Optical density ([1]; 2 mg/ml TQL-1055 in 15% w/v HP-β-CD in PBS, 0 hour (after sonication), replicates) was 0.083, 0.083, (2×) and 0.083 (n = 3). For the same compound, the Optical density ([1]; 2 mg/ml TQL-1055 in 15% w/v HP-β-CD in PBS, 24 hours (stored at RT), replicates) was 0.081, 0.081, the Optical density ([1]; 2 mg/ml TQL-1055 in 15% w/v HP-β-CD in PBS, 48 hours (stored at RT), replicates) was 0.067 and 0.068 and the Optical density ([1]; 2 mg/ml TQL-1055 in 20% w/v HP-β-CD in PBS, 0 hour (after sonication), replicates) was 0.061 and 0.066 and 0.068 (n = 3). For the same compound, the Optical density ([1]; 2 mg/ml TQL-1055 in 20% w/v HP-β-CD in PBS, 24 hours (stored at RT), replicates) was 0.054, 0.054, the Optical density ([1]; 2 mg/ml TQL-1055 in 20% w/v HP-β-CD in PBS, 48 hours (stored at RT), replicates) was 0.049 and 0.053 and the Optical density ([1]; 2 mg/ml TQL-1055 in 25% w/v HP-β-CD in PBS, 0 hour (after sonication), replicates) was 0.052 (n = 3) and 0.049 and 0.051. The Optical density ([1]; 2 mg/ml TQL-1055 in 25% w/v HP-β-CD in PBS, 24 hours (stored at RT), replicates) was 0.053 and 0.054, the Optical density ([1]; 2 mg/ml TQL-1055 in 25% w/v HP-β-CD in PBS, 48 hours (stored at RT), replicates) was 0.057 and 0.055 and the Clarity of solution [1, 11] was “not completely clear”. For the same compound, the “Optical density (OD)” value [1, 11] was > 0.060, the “Dissolution of TQL-1055” value ([1]; 2 mg/ml in 20% (solution 2) and 25% (solution 3) w/v HP-β-CD in PBS) was “dissolved completely” and the pH [2, 7] was “(pH = 7.26)”. The pH [2, 8] was “(pH = 7.28)”, the pH [2, 9] was “(pH = 7.28)” and the pH [2, 10] was “(pH = 7.21)”. For the same compound, the “Clarity (OD)” value ([3]; 5 C., 1 month) was 0.0485 and 0.051, the “Clarity (OD)” value ([3]; 5 C., 1 week) was 0.051 and 0.053 and the “Clarity (OD)” value ([3]; 5 C., 2 month) was 0.058 and 0.050. The “Clarity (OD)” value ([3]; 5 C., Day 1) was 0.054 and 0.053, the “Clarity (OD)” value ([3]; 25 C., 1 month) was 0.053 and 0.0455 and the “Clarity (OD)” value ([3]; 25 C., 1 week) was 0.049 and 0.052. The “Clarity (OD)” value ([3]; 25 C., 2 month) was 0.051 and 0.05, the “Clarity (OD)” value ([3]; 25 C., Day 1) was 0.052 and 0.050 and the “Clarity (OD)” value ([3]; −20 C., 1 month) was 0.049 and 0.0475. The “Clarity (OD)” value ([3]; −20 C., 1 week) was 0.05 and 0.051, the “Clarity (OD)” value ([3]; −20 C., 2 month) was 0.054 and the “Clarity (OD)” value ([3]; −20 C., Day 1) was 0.056 and 0.052. For the same compound, the pH ([4]; 5 C., 1 month) was 7.81 and 7.32, the pH ([4]; 5 C., 1 week) was 7.32 and 7.25 and the pH ([4]; 5 C., 2 month) was 7.35 and 7.48. For the same compound, the pH ([4]; 5 C., Day 1) was 7.47 and 7.43, the pH ([4]; 25 C., 1 month) was 7.82 and 7.50 and the pH ([4]; 25 C., 1 week) was 7.35 and 7.00. The pH ([4]; 25 C., 2 month) was 7.51 and 7.44, the pH ([4]; 25 C., Day 1) was 7.45 and 7.47 and the pH ([4]; −20 C., 1 month) was 7.24 and 7.53. For the same compound, the pH ([4]; −20 C., 1 week) was 7.19 and 7.26, the pH ([4]; −20 C., 2 month) was 7.41 and 7.46 and the pH ([4]; −20 C., Day 1) was 7.35 and 7.41. For the same compound, the HPLC ([5]; 5 C., 1 month) was 106.1 and 107.9, the HPLC ([5]; 5 C., 1 week) was 104.4 and 108.9 and the HPLC ([5]; 5 C., 2 months) was 109 and 105. The HPLC ([5]; 5 C., Day 1) was 105.4 and 109.4, the HPLC ([5]; 25 C., 1 month) was 108.7 and 107.5 and the HPLC ([5]; 25 C., 1 week) was 109.2 and 106.9. The HPLC ([5]; 25 C., 2 months) was 105, the HPLC ([5]; 25 C., Day 1) was 106.1 and 109.4 and the HPLC ([5]; −20 C., 1 month) was 109.6. For the same compound, the HPLC ([5]; −20 C., 2 months) was 105.3 and 102, the HPLC ([5]; −20 C., Day 1) was 100 and 105.3 and the solubility in water [6] was “poor solubility in water at physiological pH”. For the same compound, the “Mortality (follow-on studies, text)” value (CD-i mice) was “did not result in mortality”.

Source: patent US20250025550A1, “ADJUVANT COMPOUNDS AND FORMULATIONS” (ADJUVANCE TECHNOLOGIES, INC., priority 2021, published 2025)
